Where two headings read alike, the source gives them in different places.
Columns and labels:
myocardium [1] = assay: Open chest ultrasound imaging of the heart with contrast agent, then adenosine bolus; type: in vivo, dog
Description: A midline sternotomy was performed on an anaesthetised 20 kg mongrel dog and the anterior pericardium was removed. A short axis view of the heart was imaged with an ATL HDI-3000 scanner, using a P5-3 transducer in harmonic mode; a 30 mm silicone rubber spacer having low ultrasound attenuation was placed between the transducer and the anterior surface of the heart. ECG gating was used so as to acquire one image in each end-systole.
(§1) In order to analyse ultrasound images obtained according to the procedure of Example 1, the images were first converted from video images into grey level digital images (640×480 pixels) using a frame grabber. A fixed central region (399×399 pixels) covering the image sector was selected for further processing. The thus-obtained images were decimated by averaging 3×3 pixels into new images (133×133 pixels) and were then median filtered using a sliding region (5×5 pixels).
(§2) A single image obtained just before onset of adenosine-induced vasodilatation was selected as a geometrical template to which all other images were automatically adjusted to maximum pixel correlation by an affine transformation (6 degrees of freedom). Only pixels within a region of interest in the template image encompassing the left ventricle and its myocardium were used for calculating maximum pairwise pixel grey level correlation.
(§3) 6-10 baseline images from before the appearance of adenosine effects were averaged to give a representative baseline image, and a similar number of images at peak adenosine effect were likewise averaged. The two thus-obtained averaged images were then subtracted and the difference was colour coded. […] The colour coding was selected to represent the range −4 dB (blue colour) to +4 dB (red colour).
Images were acquired as described in Example 1 and processed according to the method of Example 4. The normal myocardium was depicted with a homogeneous colour indicating a signal increase of some 3-4 dB.

myocardium [2] = assay: Imaging in man: pulse inversion imaging of the heart with contrast agent and adenosine infusion; type: in vivo, human; details: adenosine i.v. infusion 140 μg/kg/min, apical 2-chamber view, Preparation 1 contrast agent
Description: A patient with an angiographically verified 80% left anterior descending arterial stenosis was given an intravenous injection of 1 ml of a perfluorobutane microbubble suspension prepared as in Preparation 1. The heart was imaged with an ATL HDI-5000 scanner and a P4-2 transducer, using ECG-gated (every second end-systole) pulse inversion imaging; the mechanical index was 0.6. The heart was imaged from an apical 2-chamber view. […] Intravenous infusion of adenosine at a rate of 140 μg/kg/min was then started, and a sequence of 30 images, of which 10 were before the onset of adenosine effects in the heart, were stored in digital format. The images were processed as in Example 4, but without the initial video grabbing steps.

[3] = test system: left circumflex perfusion beds; details: contrast agent perfluoropropane-enhanced sonicated dextrose albumin i.v., cited from earlier work
myocardium [4] = assay: Open chest ultrasound imaging with partial coronary occlusion (snare on left anterior descending coronary artery); type: in vivo, dog; details: for change in contrast effect in the myocardium, except in areas supplied by the stenotic artery: one minute after start of infusion
Description: The procedure of Example 1 was repeated except that an occluding snare was placed around the major branch of the left anterior descending coronary artery. An ultrasound transit time flow meter was applied to the same artery and the snare was adjusted to give a stable reduction in blood flow to about 75% of the normal value. Contrast agent and adenosine injections were then administered as in Example 1.
as §1, §2, §3
Images were acquired as described in Example 3 and processed according to the method of Example 4.
The procedure of Example 3 is repeated except that the bolus injection of adenosine is replaced with a pumpcontrolled infusion of dobutamine at a rate of 15 μg/kg/min.
The procedure of Example 3 is repeated except that the bolus injection of adenosine is replaced with a pumpcontrolled infusion of arbutamine at a rate of 0.4 μg/kg/min.

myocardium [5] = assay: Closed chest ultrasound imaging of the heart with contrast agent, then adenosine bolus; type: in vivo, dog; details: Preparation 1 contrast agent
Description: The procedure of Example 1 was repeated with a closed chest dog, using a parasternal transducer position. The resulting ultrasound images were less homogeneous as regards signal intensities than the images obtained in Example 1, as a result of acoustic effects of the intact chest wall.
as §1, §2
6-10 baseline images from before the appearance of adenosine effects were averaged to give a representative baseline image, and a similar number of images at peak adenosine effect were likewise averaged. […]

[6] = in vivo; cited from earlier work
[7] = adenosine 150 μg/kg i.v. bolus after Preparation 1 contrast agent
[8] = blood flow reduced to about 75% of normal, adenosine 150 μg/kg i.v. bolus, Preparation 1 contrast agent
[9] = following injection of adenosine, processed difference image

**Q.** For `Nc1ncnc2c1ncn2[C@@H]1O[C@H](CO)[C@@H](O)[C@H]1O` [Adenosine, adenosine], which “change in echo intensity from the myocardium” value (myocardium [1]; [7]) is on record?
**A.** distinct general increase in echo intensity

**Q.** What about the “duration of the increase in echo intensity” value (myocardium [1]; [7]) of the same compound?
**A.** ~15 s

**Q.** And the “time from adenosine injection to increase in echo intensity from the myocardium” value (myocardium [1]; [7])?
**A.** 7 s

**Q.** What about the “signal increase in normal myocardium (processed difference image)” value (myocardium [1]; open chest, peak adenosine effect versus baseline, Preparation 1 contrast agent) of the same compound?
**A.** 3-4 dB

**Q.** And the “decrease in signal intensity in myocardial regions supplied by the stenotic artery” value (myocardium [2])?
**A.** 1-2 dB

**Q.** What about the “increase in signal intensity in normal regions of the myocardium” value (myocardium [2]) of the same compound?
**A.** 2-3 dB

**Q.** What about the “ratio of peak myocardial videointensities, adenosine stress compared to resting” value ([3]; stenoses with diameter in excess of 70%) of the same compound?
**A.** 0.8-1.4

**Q.** And the “ratio of peak myocardial videointensities, adenosine stress compared to resting” value ([3]; stenoses with diameter not exceeding 50%)?
**A.** 1.8-2.1

**Q.** What about the “change in contrast effect in all other areas of the myocardium” value (myocardium [4]; [8]) of the same compound?
**A.** increase

**Q.** And the “change in contrast effect in tissue areas affected by the occlusion” value (myocardium [4]; [8])?
**A.** slight decrease in contrast effect

**Q.** And the “decrease in signal intensity in myocardial tissue affected by the simulated coronary stenosis” value (myocardium [4]; [9])?
**A.** 1-3 dB

**Q.** What about the “increase in signal intensity in normal myocardium” value (myocardium [4]; [9]) of the same compound?
**A.** 2-3 dB

**Q.** And the “change in echo intensities after injection of adenosine” value (myocardium [5]; parasternal transducer position)?
**A.** general increase in echo intensities comparable to that observed in Example 1

**Q.** And the “signal increase in normal myocardium (processed difference image)” value (myocardium [5]; peak adenosine effect versus baseline)?
**A.** 3-4 dB

**Q.** What about the blood pool half-life [6] of the same compound?
**A.** only a few seconds

**Q.** Which “change in contrast effect in the myocardium, except in areas supplied by the stenotic artery” value (myocardium [4]; arbutamine infusion 0.4 μg/kg/min, Preparation 1 contrast agent) does the source give for `Oc1ccc(CCCCNC[C@H](O)c2ccc(O)c(O)c2)cc1` [arbutamine] here?
**A.** increase in contrast effect

**Q.** Which “change in contrast effect in the myocardium, except in areas supplied by the stenotic artery” value (myocardium [4]; dobutamine infusion 15 μg/kg/min, Preparation 1 contrast agent) does the source give for `CC(CCc1ccc(O)cc1)NCCc1ccc(O)c(O)c1` (centres unmarked) [dobutamine] here?
**A.** increase in contrast effect

— patent US20040052728A1, “Diagnostic imaging” (priority 1998, published 2004)
